Source: US20140295012A1, “LATENT HUMAN IMMUNODEFICIENCY VIRUS REACTIVATION” (priority 2011, published 2014)
Read-outs that look alike come from different tables or passages of the source. Where a SMILES comes first, the peptide text is derived from it. The star is where a group is joined. Cbz = O=C(OCc1ccccc1)*

Tests used:
Assay type in all cases: cell-based
[1] = system: latently HIV-1 infected CA5 T cells; conditions: for priming effect on HIV-1 reactivation by sub-optimal dose of HRF: CA5 cells pretreated with increasing concentrations; for effect of higher concentrations on HIV-1 reactivation triggered by HRF or TNF-α: correlated with high levels of cytotoxicity
Description: (§1) Infection levels in the cell cultures were monitored by flow cytometric analysis of EGFP expression. Flow cytometric analysis was performed on a GUAVA EasyCyte (Millipore; Billerica, Mass.), or a LSRII (Becton & Dickinson; Franklin Lakes, N.J.).
Bacterial growth. Bacteria from various sources were isolated on TSA II agar plates containing 5% sheep blood. Bacterial isolates were then grown in RPMI 1640 medium supplemented with 10% FBS. After two days of incubation at 37° C. bacteria were pelleted and resuspended in RPMI medium to an optical density (OD600) of 8, aliquoted and frozen at −80° C. Unless otherwise indicated, Massilia timonae was grown in RPMI 1640 medium supplemented with 10% FBS. Typically, medium was inoculated with Massilia timonae from frozen stocks to an OD600 of 0.01. After 48 hours at 37° C., the culture was centrifuged at 3200 g to separate bacteria from the culture medium. Bacteria were resuspended in fresh medium to an OD600 of 8 and frozen to be used as references and stock cultures. The supernatant was then centrifuged at 10,000 g for 20 minutes and sterilized by passage through a 0.2 μm PVDF filter with low protein binding ability. HRF activity was determined by its ability to reactivate latent HIV-1 infection in CA5 cells. Only supernatants of which 6 μl reactivated infection in at least 60% of CA5 cells were used to study HRF properties.
Flow cytometry. Infection levels in the cell cultures were monitored by flow cytometric (FCM) analysis of GFP expression. FCM analysis was performed on a GUAVA EasyCyte (GUAVA Technologies, Inc.; Millipore; Billerica, Mass.) and a BD FACSCalibur or a LSRII (Becton & Dickinson; Franklin Lakes, N.J.). Cell sorting experiments were performed using a FACSAria™ Flow Cytometer (Becton&Dickinson). Data analysis was performed using either CellQuest (Becton&Dickinson) or GUAVA Express (GUAVA Technologies, Inc.).
To identify the optimal concentration of dactinomycin, CA5 T cells were pretreated with increasing concentrations of dactinomycin (0.0001 and 1 μg/ml), and then left untreated or stimulated with a sub-optimal concentration of HRF or TNF-α. Representative results for stimulation with HRF are depicted in FIG. 3. The chosen HRF concentration has only minimal HIV-1 reactivating effect by itself (15% reactivation over background). Twenty four hours after activator addition, levels of HIV-1 reactivation were determined as the percentage of GFP-positive cells using flow cytometric analysis, which allowed for the simultaneous determination of cell viability. […] Optimal pretreatment time was 18 hours. Maximum reactivation effects were seen 48 hours after stimulation.

[2] = system: latently HIV-1 infected CA5 T cells
[3] = system: latently HIV-1 infected J89GFP T cells; experiment: HIV-1 reactivation / priming in latently HIV-1 infected J89GFP T cells (GFP, flow cytometry, HTS); conditions: 10 ng/ml PMA; three J89GFP populations
Description: Flow cytometry. Infection levels in the cell cultures were monitored by flow cytometric (FCM) analysis of GFP expression. […] Cell sorting experiments were performed using a FACSAria™ Flow Cytometer (Becton&Dickinson). Data analysis was performed using either CellQuest (Becton&Dickinson) or GUAVA Express (GUAVA Technologies, Inc.).

HIV-1 LTR = experiment: Tat-independent activation of integrated LTR-GFP construct in NOMI reporter T cells; conditions: 24 hours
Description: (§2) FIGS. 6A-6C show HRF triggers suboptimal functional induction of NF-κB dependent gene expression. […] The HIV-1 reactivating kinetics were determined by stimulating CA5 T cells with optimal concentrations of HRF, phorbol 12-myristate 13-acetate (PMA) and tumor necrosis factor-α (TNF-α) and analyzing HIV-1 reactivation as a function of EGFP-expression over a period of 48 hours. Data for all agents are depicted as the percentage of EGFP-positive cells in the total cell population. […] To test the ability of HRF to mediate Tat-independent activation of the HIV-1 LTR, NOMI cells (HIV-1 reporter cell line with an integrated LTR-EGFP construct) were stimulated with increasing concentrations of PMA (0.01-10 ng/ml), TNF-α (0.003-30 μg/ml) and HRF supernatant (0.3-100 μl). The level of LTR-induction was then measured as EGFP-expression detectable after 24 hours as determined by flow cytometric analysis. Arrows indicate the concentrations at which the respective stimulus would have triggered full HIV-1 reactivation in the latently HIV-1 infected CA5 T cell line. […] 293T cells were transfected with several NF-κB dependent promoter constructs and then stimulated with either TNF-α (10 μg/ml) or HRF (25 μl). Promoter induction was measured as total EGFP expression. (NF-κB:pNF-κB-d2EGFP; LTR:HIV-1 LTR-GFP; IL-8:pIL-8 GFP; TNF:human TNF-GFP; MSCV:murine stem cell virus LTR driven GFP; no NF-κB responsive elements).
As the NF-κB pathway has been recognized as vital to HIV-1 activation, the ability of HRF to trigger NF-κB activation was investigated. It was initially determined that HRF had the ability to stimulate Tat independent activation of an integrated LTR-GFP construct in NOMI reporter T cells.

[4] = system: chronically actively infected T cell lines (JNLG#35 and JNLG#44); experiment: Active HIV-1 transcription in chronically actively infected T cell lines JNLG#35 and JNLG#44 (GFP MCF); conditions: 48 hours
Description: Changes in HIV-1 transcription levels were determined after 48 hours by measuring GFP mean channel fluorescence intensity (GFP MCF). GFP MCF was plotted over the drug concentration for dactinomycin (FIG. 12A), the DNA intercalators daunorubicin (DM) (FIG. 12B) and rebeccamycin (RM) (FIG. 12C), as well as the transcription inhibitors ICRF-193 (FIG. 12D), DRB (FIG. 12E) and α-amanitin (FIG. 12F). The size of symbols indicates the respective cell viability in the sample (size range adjusted to 5-95%).
For this purpose, each of the compounds was titrated over a relevant range of concentrations on two chronically actively infected T cell lines (JNLG#35 and JNLG#44). These clonal cell lines are infected with a GFP-reporter virus. Forty eight hours after addition of the compounds, the effect of each compound on HIV-1 transcription was determined by flow cytometric analysis quantifying GFP mean channel fluorescence intensity (MCF).

[5] = system: NF-κB dependent promoters in 293T cells; experiment: NF-κB dependent promoter constructs transfected into 293T cells (EGFP expression)
Description: as §2
The utilized EGFP reporter virus HIV-1 NLENG1-IRES has been described elsewhere (Kutsch et al., J. Virol. 76:8776-86 (2002); Levy et al., Proc. Natl. Acad. Sci. USA 101:4204-9 (2004)). The reporter plasmid pNF-κB-d2EGFP was purchased from Clontech (Mountain View, Calif.). The LTR-GFP construct and the IL-8 reporter construct have been described earlier (Choi et al., Mol. Cell. Biol. 22:724-36 (2002)). The TNF-promoter construct was generated by cloning the human TNF-α promoter element defined by primer pair 5′-BglII; 5′-[…] […]-3′ (SEQ ID NO:2) and 3′-AgeI; 5′-[…] […]-3′ (SEQ ID NO:3) into pd2EGFP (Clontech). MSCV-GFP was generated by cloning the EGFP-gene into retroviral pMSCV-puro vector (Clontech).

[6] = system: latently HIV-1 infected reporter T cell lines; conditions: four latently infected reporter T cell lines; culture supernatant
Description: FIGS. 1A and 1B show culture supernatants from Massilia timonae reactivate latent HIV-1 infection. […] Untreated control cells and HRF-treated cells were subjected to flow cytometric analysis to determine enhanced green fluorescent protein (EGFP) expression as a direct and quantitative marker of HIV-1 expression 24 hours post stimulation. FSC/SSC dot plots are represented to evaluate cell viability as a function of changes in the FSC (cell size)-SSC (granularity) phenotype of the cells. FIG. 1B is a histogram showing the reproducibility of the observed HIV-1 reactivation. Three independent preparations of HRF (batches HRF1-3) on four different latently infected T cell lines (5F3, 8E12, CA5 and 12D4) were tested. The percentage of EGFP positive cells following stimulation is depicted in the histogram. Cell culture supernatants of Pseudomonas aeruginosa cultures, grown under similar conditions, were used as specificity controls.
as §1

[7] = system: latently HIV-1 infected monocytic THP89GFP cells; experiment: HIV-1 reactivation in latently infected monocytic THP89GFP cells

Question: For CC[C@H](C)[C@@H]1NC(=O)CNC(=O)[C@@H]2Cc3c([nH]c4cc(O)ccc34)[S+]([O-])C[C@@H](NC(=O)CNC1=O)C(=O)N[C@@H](CC(N)=O)C(=O)N1C[C@H](O)C[C@H]1C(=O)N[C@@H]([C@@H](C)[C@@H](O)CO)C(=O)N2 (stereo in doubt) [α-amanitin], which “priming effect on HIV-1 reactivation by sub-optimal dose of HRF” value (“priming effect on HIV-1 reactivation” below) [1] is on record?
Answer: None of the inhibitors exerted a priming effect

Question: And the “priming effect on HIV-1 reactivation” value ([1]; listed as α-aminitin)?
Answer: did not exhibit any priming effect

Question: What about the “effect of higher concentrations on HIV-1 reactivation triggered by HRF or TNF-α” value [1] of the same molecule?
Answer: inhibit HIV-1 reactivation

Question: OC[C@H]1O[C@@H](n2cnc3cc(Cl)c(Cl)cc32)[C@H](O)[C@@H]1O [DRB, 5,6 dichloro-beta-D-ribofuranosylbenzimidazole] was tested. Which “effect of higher concentrations on HIV-1 reactivation triggered by HRF or TNF-α” value [1] did it give?
Answer: inhibit HIV-1 reactivation

Question: For CC(=O)NCCCCCCNC(C)=O [HMBA, Hexamethylene bisacetamide], which “optimal concentration as HIV-1 priming agent prior to onset of drug mediated toxicities” value [1] is on record?
Answer: 3 to 10 mM

Question: What about the “HIV-1 reactivation (cells)” value ([2]; 3 mM) of the same molecule?
Answer: 15%

Question: And the “HIV-1 reactivation (cells)” value ([2]; 9 mM)?
Answer: 35%

Question: What about the compound toxicity ([2]; 9 mM) of the same molecule?
Answer: onset of compound toxicity

Question: What about the HIV-1 reactivation levels ([2]; HMBA alone, overall) of the same molecule?
Answer: < 40%

Question: And the reactivation ([2]; combination of HMBA and TNF-α)?
Answer: 81%

Question: What about the reactivation ([2]; optimal dose of HMBA alone) of the same molecule?
Answer: 27%

Question: What about the “priming for full reactivation by sub-optimal TNF-α” value ([2]; sub-toxic concentrations) of the same molecule?
Answer: relatively potent at priming latent HIV-1 infection

Question: How did the “priming effect on HIV-1 reactivation” value [1] turn out when CC(C)C[C@@H](C=O)NC(=O)[C@H](CC(C)C)NC(=O)[C@H](CC(C)C)NC(=O)OCc1ccccc1 [MG132] (Cbz-Leu-Leu-Leu-aldehyde) was run?
Answer: did not exhibit any priming effect

Question: Which results are given for CCCCCCCCCCCCCC(=O)O[C@@H]1[C@@H](C)[C@@]2(O)[C@@H](C=C(CO)C[C@]3(O)C(=O)C(C)=C[C@@H]23)[C@@H]2C(C)(C)[C@]12OC(C)=O [PMA, phorbol 12-myristate 13-acetate]?
Answer: Maximum achievable HIV-1 reactivation levels [3]: 90±3%; Tat-independent activation of integrated LTR-GFP construct (GFP expression) (HIV-1 LTR): stimulated Tat-independent activation

Question: Which results are given for C=C(c1ccc(C(=O)O)cc1)c1cc2c(cc1C)C(C)(C)CCC2(C)C [bexarotene]?
Answer: effect with bryostatin on latent HIV-1 infection ([2]; bexarotene overnight pretreatment, CA5 T cells): synergistic effect; priming of latent HIV-1 infection for reactivation by a second stimulus ([2]; pretreatment 2 hours or overnight): primed latent HIV-1 infection for reactivation by a second stimulus in a synergistic manner

Question: How did the “priming effect on HIV-1 reactivation” value [1] turn out when CC[C@@]1(O)C(=O)OCc2c1cc1n(c2=O)Cc2cc3ccccc3nc2-1 [camptothecin] was run?
Answer: None of the inhibitors exerted a priming effect

Question: Which results are given for COc1cccc2c1C(=O)c1c(O)c3c(c(O)c1C2=O)C[C@@](O)(C(C)=O)C[C@@H]3O[C@H]1C[C@H](N)[C@H](O)[C@H](C)O1 [daunorubicin]?
Answer: priming effect on HIV-1 reactivation by sub-optimal dose of HRF [1]: not reproduced; priming effect on HIV-1 reactivation by sub-optimal dose of HRF ([1]; listed as Dauno): did not exhibit any priming effect; effect on active HIV-1 infection / transcription (GFP MCF) [4]: boosted active HIV-1 transcription

Question: How did the “priming effect on HIV-1 reactivation” value [1] turn out when O=C1[O][Pt]2([NH][C@@H]3CCCC[C@H]3[NH]2)[O]C1=O [oxaliplatin] was run?
Answer: not reproduced

Question: CC(=O)O[C@@]12C[C@@H](C)[C@@]3(O)[C@@H](C=C(CO)C[C@]4(O)C(=O)C(C)=C[C@@H]34)[C@@H]1C2(C)C [prostratin] was tested. Which interaction with bexarotene [2] did it give?
Answer: interact with bexarotene to reactivate latent HIV-1 infection

Question: Which results are given for CO[C@H]1[C@H](O)[C@@H](O)[C@H](n2c3c(Cl)cccc3c3c4c(c5c6cccc(Cl)c6[nH]c5c32)C(=O)NC4=O)O[C@@H]1CO [rebeccamycin]?
Answer: priming effect on HIV-1 reactivation by sub-optimal dose of HRF [1]: not reproduced; effect on active HIV-1 infection / transcription (GFP MCF) [4]: boosted active HIV-1 transcription

Question: How did the reactivation ([1]; sub-optimal dose of TNF-α alone) turn out when TNF-α was run?
Answer: 32%

Question: What about the “Tat-independent activation of integrated LTR-GFP construct (GFP expression)” value (HIV-1 LTR) of the same molecule?
Answer: stimulated Tat-independent activation

Question: What about the “GFP expression driven by NF-κB responsive promoter constructs (IL-8, TNF-α, HIV-1 LTR, three consensus NF-κB sites)” value [5] of the same molecule?
Answer: efficiently induced

Question: What about the “GFP expression of construct under control of murine stem cell virus LTR (no NF-κB responsive element)” value [5] of the same molecule?
Answer: Neither TNF-α nor HRF influenced GFP expression

Question: What does the source list for lipopolysaccharide?
Answer: HIV-1 reactivation [6]: only reactivated HIV-1 infection in the latently HIV-1 infected monocytic THP89GFP cells; HIV-1 reactivation [7]: reactivated HIV-1 infection
